{"source": "paper PMC7756341", "about": "“Liposomal FRET Assay Identifies Potent Drug‐Like Inhibitors of the Ceramide Transport Protein (CERT)” (Chemistry (Weinheim an Der Bergstrasse, Germany), 2020)", "tested_on": "HeLa cells", "assay": "Sphingolipid content of treated HeLa cells by quantitative mass spectrometry", "format": "cell-based", "conditions": "HeLa, 42h, single replicates; for Cer16 / Cer18 / Cer20 / Cer22 / Cer24 / Cer24:1 / Cer total / S1P / SM16 / SM18 / SM20 / SM22 / SM24 / SM24:1 / SM total / Sph: 500.000 cells per sample", "description": "5.2 Cellular experiment for lipidomic analysis\nHela cells were cultured in six well plates (177000 cells per well) under standard growth conditions (DMEM with 4mM L-glutamine, 10% FBS, 1% Penicillin-Streptomycin; CO2 incubator with […]\n37°C, 5% CO2). […]\nAfter incubation, […]\nthe adherent cells were washed twice with ice-cold PBS and harvested by treatment with trypsin.\nCells were counted using a Countess II cell counter ( Invitrogen) and adjusted to 500.000 cells per sample. Each sample was then treated as described below.\n6. Details for experimental lipidomics\nCells were subjected to lipid extraction using 1.5 mL methanol/chloroform (2:1, v:v) as described. The extraction solvent contained C17-ceramide (Cer17) and C16 -d31-sphingomyelin (d31-SM16) (both Avanti Polar Lipids, Alabaster, USA) as internal standards. Chromatographic separations were achieved on a 1260 Infinity HPLC (Agilent Technologies, Waldbronn, Germany) equipped with a Poroshell 120 EC-C8 column (3.0 × 150 mm, 2.7 µm; Agilent Technologies). A mobile phase system consisting of water (solvent A) and acetonitrile/methanol (1:1, v:v; solvent B), both acidified with 0.1% formic acid, was used for gradient elution at an initial composition of 40:60 (A:B, v:v) and a flow rate of 0.5 mL/min. MS/MS analyses were carried out using a 6490 triple-quadrupole mass spectrometer (Agilent Technologies) operating in the positive electrospray ionization mode (ESI+). The following ion source parameters were set: sheath gas temperature, 375 °C; sheath gas flow, 12 L/min of nitrogen; nebulizer pressure, 30 psi; drying gas temperature, 200 °C; drying gas flow, 15 L/min of nitrogen; capillary voltage, 4000 V; nozzle voltage, 1500 V; iFunnel high pressure RF voltage, 150 V and iFunnel low pressure RF voltage, 60 V. The following mass transitions were recorded (collision energies of 25 eV for all transitions): ceramides: m/z […]\nwith MassHunter Software (Agilent Technologies). Significance of differences between two samples was calculated by student’s t -test. Asterisks indicate significant differences between treated and untreated samples: * p<0.05; ** p<0.01; *** p<0.005.\nTable S1. Sphingolipid content of treated cells.\n(1 picture or pasted object on this page, not shown here)", "note": "Several values for one entry are separate records, joined by “and”; a condition that tells them apart may be missing. Identical values can stand only once."}
{"compound": "CCCCCCCCCCCC(=O)NC(CO)CC(O)c1ccccc1", "note": "(stereo not drawn) [HPA-12, N-(3Hydroxy-1-hydroxymethyl-3-phenylpropyl)-dodecamide]", "values": [{"measurement": "Cer16", "setting": "1 µM", "value": "48,20 pmol/sample and 45,94 pmol/sample and 44,92 pmol/sample"}, {"measurement": "Cer18", "setting": "1 µM", "value": "3,35 pmol/sample and 2,85 pmol/sample and 3,38 pmol/sample"}, {"measurement": "Cer20", "setting": "1 µM", "value": "1,15 pmol/sample and 0,88 pmol/sample and 1,18 pmol/sample"}, {"measurement": "Cer22", "setting": "1 µM", "value": "8,47 pmol/sample and 7,59 pmol/sample and 8,53 pmol/sample"}, {"measurement": "Cer24", "setting": "1 µM", "value": "25,47 pmol/sample and 26,70 pmol/sample and 25,58 pmol/sample"}, {"measurement": "Cer24:1", "setting": "1 µM", "value": "64,01 pmol/sample and 60,79 pmol/sample and 68,53 pmol/sample"}, {"measurement": "Cer total", "setting": "1 µM", "value": "150,65 pmol/sample and 143,74 pmol/sample and 153,13 pmol/sample"}, {"measurement": "S1P", "setting": "1 µM", "value": "1,34 pmol/sample and 1,27 pmol/sample and 1,52 pmol/sample"}, {"measurement": "SM16", "setting": "1 µM", "value": "1695,91 pmol/sample and 1668,53 pmol/sample and 1609,69 pmol/sample"}, {"measurement": "SM18", "setting": "1 µM", "value": "47,55 pmol/sample and 44,39 pmol/sample and 46,43 pmol/sample"}, {"measurement": "SM20", "setting": "1 µM", "value": "15,20 pmol/sample and 14,34 pmol/sample and 14,30 pmol/sample"}, {"measurement": "SM22", "setting": "1 µM", "value": "91,42 pmol/sample and 86,76 pmol/sample and 85,97 pmol/sample"}, {"measurement": "SM24", "setting": "1 µM", "value": "147,79 pmol/sample and 134,40 pmol/sample and 140,17 pmol/sample"}, {"measurement": "SM24:1", "setting": "1 µM", "value": "708,14 pmol/sample and 660,22 pmol/sample and 659,25 pmol/sample"}, {"measurement": "SM total", "setting": "1 µM", "value": "2706,02 pmol/sample and 2608,64 pmol/sample and 2555,82 pmol/sample"}, {"measurement": "Sph", "setting": "1 µM", "value": "3,87 pmol/sample and 3,57 pmol/sample and 3,94 pmol/sample"}, {"measurement": "ratio total SM/Cer", "setting": "1 µM", "value": "17,7 and 17,3 and 17,8"}, {"measurement": "Cer16", "setting": "2.5 µM", "value": "45,72 pmol/sample and 45,34 pmol/sample and 45,94 pmol/sample"}, {"measurement": "Cer18", "setting": "2.5 µM", "value": "2,82 pmol/sample and 3,05 pmol/sample and 2,77 pmol/sample"}, {"measurement": "Cer20", "setting": "2.5 µM", "value": "0,99 pmol/sample and 0,90 pmol/sample and 0,94 pmol/sample"}, {"measurement": "Cer22", "setting": "2.5 µM", "value": "8,93 pmol/sample (2×) and 7,27 pmol/sample"}, {"measurement": "Cer24", "setting": "2.5 µM", "value": "29,39 pmol/sample and 22,20 pmol/sample and 31,70 pmol/sample"}, {"measurement": "Cer24:1", "setting": "2.5 µM", "value": "64,09 pmol/sample and 55,48 pmol/sample and 66,75 pmol/sample"}, {"measurement": "Cer total", "setting": "2.5 µM", "value": "151,94 pmol/sample and 134,23 pmol/sample and 157,03 pmol/sample"}, {"measurement": "S1P", "setting": "2.5 µM", "value": "1,60 pmol/sample and 1,73 pmol/sample and 1,58 pmol/sample"}, {"measurement": "SM16", "setting": "2.5 µM", "value": "1489,44 pmol/sample and 1440,97 pmol/sample and 1448,69 pmol/sample"}, {"measurement": "SM18", "setting": "2.5 µM", "value": "53,85 pmol/sample and 43,84 pmol/sample and 45,37 pmol/sample"}, {"measurement": "SM20", "setting": "2.5 µM", "value": "20,27 pmol/sample and 13,88 pmol/sample and 14,55 pmol/sample"}, {"measurement": "SM22", "setting": "2.5 µM", "value": "75,95 pmol/sample and 76,48 pmol/sample and 75,20 pmol/sample"}, {"measurement": "SM24", "setting": "2.5 µM", "value": "129,06 pmol/sample and 114,60 pmol/sample and 121,10 pmol/sample"}, {"measurement": "SM24:1", "setting": "2.5 µM", "value": "524,32 pmol/sample and 581,92 pmol/sample and 555,40 pmol/sample"}, {"measurement": "SM total", "setting": "2.5 µM", "value": "2229,23 pmol/sample and 2350,50 pmol/sample and 2245,18 pmol/sample"}, {"measurement": "Sph", "setting": "2.5 µM", "value": "2,13 pmol/sample and 3,27 pmol/sample and 2,40 pmol/sample"}, {"measurement": "ratio total SM/Cer", "setting": "2.5 µM", "value": "14,2 and 15,5 and 16,7"}, {"measurement": "Cer16", "setting": "5 µM", "value": "43,83 pmol/sample and 46,26 pmol/sample and 43,34 pmol/sample"}, {"measurement": "Cer18", "setting": "5 µM", "value": "2,50 pmol/sample and 2,62 pmol/sample and 2,51 pmol/sample"}, {"measurement": "Cer20", "setting": "5 µM", "value": "0,74 pmol/sample and 0,81 pmol/sample and 0,73 pmol/sample"}, {"measurement": "Cer22", "setting": "5 µM", "value": "6,88 pmol/sample and 6,54 pmol/sample and 6,85 pmol/sample"}, {"measurement": "Cer24", "setting": "5 µM", "value": "20,93 pmol/sample and 21,64 pmol/sample and 23,60 pmol/sample"}, {"measurement": "Cer24:1", "setting": "5 µM", "value": "53,37 pmol/sample and 55,90 pmol/sample and 57,30 pmol/sample"}, {"measurement": "Cer total", "setting": "5 µM", "value": "128,26 pmol/sample and 133,78 pmol/sample and 134,34 pmol/sample"}, {"measurement": "S1P", "setting": "5 µM", "value": "1,43 pmol/sample and 1,97 pmol/sample and 1,45 pmol/sample"}, {"measurement": "SM16", "setting": "5 µM", "value": "1306,31 pmol/sample and 1249,58 pmol/sample and 1356,77 pmol/sample"}, {"measurement": "SM18", "setting": "5 µM", "value": "41,78 pmol/sample and 39,06 pmol/sample and 41,13 pmol/sample"}, {"measurement": "SM20", "setting": "5 µM", "value": "12,76 pmol/sample and 12,48 pmol/sample and 12,54 pmol/sample"}, {"measurement": "SM22", "setting": "5 µM", "value": "68,87 pmol/sample and 67,07 pmol/sample and 70,68 pmol/sample"}, {"measurement": "SM24", "setting": "5 µM", "value": "101,53 pmol/sample and 101,48 pmol/sample and 113,95 pmol/sample"}, {"measurement": "SM24:1", "setting": "5 µM", "value": "471,40 pmol/sample and 487,46 pmol/sample and 521,22 pmol/sample"}, {"measurement": "SM total", "setting": "5 µM", "value": "2002,66 pmol/sample and 1957,13 pmol/sample and 2116,29 pmol/sample"}, {"measurement": "Sph", "setting": "5 µM", "value": "3,33 pmol/sample and 3,81 pmol/sample and 3,47 pmol/sample"}, {"measurement": "ratio total SM/Cer", "setting": "5 µM", "value": "15,6 and 14,6 and 15,8"}]}
